# Source: US20190365719A1, “COMBINATION TREATMENTS OF HSP90 INHIBITORS FOR ENHANCING TUMOR IMMUNOGENICITY AND METHODS OF USE THEREOF” (Massachusetts Institute of Technology, priority 2018, published 2019)
# Tests used:
# [1] = tested on: MC38 tumors; experiment: Subcutaneous MC38 tumors in immunocompromised NOD-SCID mice; format: in vivo; details: 0.5 mg/kg/day in drinking water
# [2] = tested on: MC38 cells; experiment: MHC Class I peptide profiling of MC38 cells by immunoprecipitation and mass spectrometry; format: cell-based, mouse
# Description: MC38 cells were cultured as described above. 10-10 cm (˜1×10^8 cells) plates of MC38 cells were cultured for 72 hours in 0.1% DMSO or 50 nM HSP990. At the time of harvest, plates were washed 1× in PBS, and then cells were lifted using PBS+2 mM EDTA. Cells were then pelleted at 500 g for 5 min and the pellets washed twice more with ice cold PBS. Pellets were then resuspended in 1 mL IP lysis buffer ([…] Tris pH 7.5, 150 mM NaCl, 1% CHAPS, 0.2 mM PMSF, 1× HALT protease/phosphatase inhibitors (Pierce). Lysates were then sonicated with a microtip sonicator for 3×10 s pulses to further disrupt cell membranes, and then centrifuged at 14 k g for 10 min. The supernatant was then quantified at 10 mg total protein lysate was used for the MHC Class IIP.
# Peptide MHC isolation was performed using a modified immunoprecipitation and protein filtration protocol, as previously described. […]
# Peptides were eluted using a 130 minute gradient with 10-45% buffer B (70% Acetonitrile, 0.2M acetic acid) from 5-100 minutes and 45-55% from 100-120 minutes at a flow rate of 0.2 mL/min for a flow split of approximately 10,000:1. Peptides were analyzed using a Thermo Q Exactive HF-X Hybrid Quadrupole-Orbitrap mass spectrometer. […] Full-scan mass spectrometry spectra [mass/charge ratio (m/z), 350 to 2,000; resolution, 60,000] were detected in the Orbitrap analyzer after accumulation of ions at 3e6 target value. […]
# [3] = tested on: KP lung tumors; experiment: Lung tumor burden in KP mouse model of NSCLC; format: in vivo; details: KP mice, 0.5 mg/kg/day in drinking water for 4 weeks
# From the text: (§1) A genetically engineered mouse model of non-small cell lung cancer (NSCLC) was used. Mice harboring a Cre-recombinase inducible oncogenic Kras, and a floxed p53 allele (KP) develop tumors following intratracheal administration of Cre recombinase. In addition, a hypermutant mouse model of NSCLC (KPM) was used in which mice have a floxed allele of the MutS homolog 2 (Msh2) gene, a critical component of DNA mismatch repair, in addition to the genetic modifications of the KP mouse model. These models enable the interrogation of Hsp90i strategies in a physiologically relevant NSCLC model with and without hypermutation.
# (§2) KP and KPM mice were infected intratracheally with Adenovirus expressing Cre recombinase from an SPC promoter at a titer of 2×10^8 plaque forming units per mouse to initiate tumor formation. 8 weeks following tumor initiation, the cohort was randomized and vehicle (control) or Hsp90i (NVP-HSP990) was administered in the drinking water at a dose of 0.5 mg/kg/day for 4 weeks prior to analysis at 12 weeks post tumor induction.
# (§3) Tumor burden was analyzed histologically on tumor sections stained with hemotoxylin and eosin (H&E) using standard protocols at the Koch Institute Histology Facility. Tumor burden was calculated by dividing the total area of tumor tissue over the total area of normal lung tissue present in each sample.
# [4] = tested on: KPM lung tumors; experiment: Lung tumor burden in hypermutant KPM mouse model of NSCLC; format: in vivo; details: KPM mice, 0.5 mg/kg/day in drinking water for 4 weeks
# From the text: as §1, §2, §3
# [5] = Mouse weights and body condition, KP and KPM mice; format: in vivo; details: four weeks of low dose treatment
# Description: FIG. 11A is a box plot showing tumor burden analysis in KP and KPM mice treated with vehicle (control) or Hsp90i. FIG. 11B is a graph showing the longitudinal analysis of mouse weights with vehicle or Hsp90i in the drinking water. The mice were treated for up to 4 weeks with vehicle control or a low dose of HSP90i. In FIG. 11B, KP and KPM mice were combined for vehicle and control treatment groups.
# as §2
compound,measurement,setting,value
COc1cccc(-c2cc(F)ccc2[C@H]2Cc3nc(N)nc(C)c3C(=O)N2)n1 [NVP-HSP990],effect on tumor growth,[1],no effect on tumor growth
same,MHC-I peptide repertoire compared to IFNγ,[2],induced a distinct repertoire of MHC-I peptides
same,number of unique MHC Class I peptides identified,"[2]; 50 nM HSP990, 72 hours, 557 from vehicle-treated cells",1005
same,lung tumor burden versus vehicle,[3],no significant difference
same,lung tumor burden versus control,[4],significantly reduced the lung tumor burden
same,mouse mass or body condition,[5],minimal effects on mouse mass or body condition
